Common to all, as to format: cell-based
One assay relates to MCF-7 cells. Description: MTT antiproliferative assay on MCF-7 cells (venom screening and isolated peptides). The settings on record: MCF7 cells, 72 h, 4 µg and 20 µg of peptide. As to the method: We screened nearly 40 different animal venoms to evaluate their potential anticancer properties. The venoms were solubilized at a concentration of 1.5 mg/mL in water. The antiproliferative activity of these venoms was tested at two concentrations, 3 µg and 15 µg, against MCF-7 cells (Appendix A, Figure A1).
Figure A1 Antiproliferative activity of different animal venoms. […] The OD was measured at 570 nm after 72 h of treatment. The abbreviations include Na: Naja anchietae; Vg: Viridovipera gumprechti; Vk: Vipera kaznakovi; Tv: Trimeresurus vogeli; Tt: Trimeresurus trigonocephalus; Ach: Atheris chlorechis; Ath ni: Atheris nitschei nitschei; Nox: Naja oxiana; Np: Naja philippinensis; At sq: Atheris squamigera; Nhl: Naja haje legionis; Por Oph: Porthidium ophryomegas; Ph: Parias hageni; Ns: Naja senegalensis.
Figure A2 Antiproliferative activity of CTNsen1, CTNsen2, CTNsen3, CTNanc1, CTNanc2, and CTNanc3 from Naja senegalensis (b) and Naja anchietae (a), respectively. […] Na and Ns here were used as a positive control at two concentrations (3 µg and 15 µg). The OD was measured at 570 nm.

In the next assay the test system is T98G glioblastoma cells. Nature of the assay: MTT antiproliferative assay on T98G cells. The settings on record: Brain glioblastoma T98G, 72 h, 1 × 10^−7 to 1 × 10^−4 Molar, OD 570 nm, three-parameter log-logistic fit. The source says: (§1) The purified peptides, named CTNsen1, CTNsen2, CTNsen3, CTNanc1, CTNanc2, and CTNanc3 from Naja senegalensis and Naja anchietae respectively, were subsequently tested for their antiproliferative effects on several glioblastoma cell lines (U87, U251, and T98G) as well as on primary human umbilical vein endothelial cells (HUVECs). A series of increasing concentrations (1 × 10^−⁷, 0.5 × 10^−6, 1 × 10^−⁶, 0.5 × 10^−5, 1 × 10^−⁵, 0.5 × 10^−4, and 1 × 10^−⁴ Molar) were used. The dose-response curves for each peptide are depicted in Figure 9, Figure 10, Figure 11 and Figure 12.
Figure 11 Antiproliferative activity of CTNsen1 (a), CTNsen2 (b), CTNsen3 (c), CTNanc1 (d), CTNanc2 (e), and CTNanc3 (f) from Naja senegalensis and Naja anchietae, respectively. […] The OD was measured at 570 nm.
(§2) U87 and T98G were plated at a density of 4000 cells per well and U251 cells at a density of 2500 cells per well in microtiter plates and allowed to adhere overnight at 37 °C in a 5% CO2 humidified environment. The following day, the medium was replaced with fresh medium containing our venom peptides under investigation. After a 72-h incubation period, cells were treated with MTT (Promega, Lyon, France) at a concentration of 0.5 mg/mL. […] Viable cells were then quantified by measuring the absorbance at 570 nm. […] Model calibration was assessed using the drm() function. […]

A further assay has as its system U251 glioblastoma cells. Nature of the assay: MTT antiproliferative assay on U251 cells. The settings on record: Brain glioblastoma U251, MTT, 72 h, 1 × 10^−7 to 1 × 10^−4 Molar, OD 570 nm; three-parameter log-logistic fit.
From the text: as §1
Figure 10 Antiproliferative activity of CTNsen1 (a), CTNsen2 (b), CTNsen3 (c), CTNanc1 (d), CTNanc2 (e), and CTNanc3 (f) from Naja senegalensis and Naja anchietae respectively. […] The OD was measured at 570 nm.
as §2
On the technique in general: Formazan colour is commonly taken as a measure of viable cells.

Bridges are numbered along the chain shown (N, C = ends). Where no end group is shown, it is not given here.

We go through one sequence from publication PMC11511367, “Antiproliferative Effects of Naja anchietae and Naja senegalensis Venom Peptides on Glioblastoma Cell Lines” (Toxins, 2024).

“LKCHQLVPPFWKTCPEGKNLCYKMYMVSSSTVPVKRGCIDVCPKNSALVKYVCCNTDKCN (disulfide 3-21, 14-38, 42-53, 54-59) [CTNsen1]”: the “Antiproliferative activity of isolated peptides” value with MCF-7 cells was “activity was confirmed”. Further, in the assay with T98G glioblastoma cells, the “IC50 (μg/mL), T98G” value is listed as “Inactive”. Moreover, the “IC50 (μg/mL), U251” value with U251 glioblastoma cells is “Inactive”.
